Measurements published in the NIST ThermoML archive (doi:10.1016/j.jct.2008.06.017).

Experiments:
[1] = xn = mol fraction of the nth substance listed; conditions: Liquid, Vibrating tube method
[2] = Liquid, Vibrating tube method

C=Cc1ccccc1 [styrene] + COC(=O)OC
[1]
Conditions | mass density [kg/m3]
293.15 K, x2 = 0 | 906.26
293.15 K, x2 = 0.0246 | 909.146
293.15 K, x2 = 0.0498 | 912.112
293.15 K, x2 = 0.1006 | 918.267
293.15 K, x2 = 0.1506 | 924.493
293.15 K, x2 = 0.2004 | 930.891
293.15 K, x2 = 0.2506 | 937.533
293.15 K, x2 = 0.3008 | 944.38
293.15 K, x2 = 0.3498 | 951.272
293.15 K, x2 = 0.4007 | 958.655
293.15 K, x2 = 0.4498 | 966.048
293.15 K, x2 = 0.5001 | 973.84
293.15 K, x2 = 0.5499 | 981.838
293.15 K, x2 = 0.5996 | 990.075
293.15 K, x2 = 0.6507 | 998.871
293.15 K, x2 = 0.7001 | 1007.72
293.15 K, x2 = 0.7496 | 1016.93
293.15 K, x2 = 0.7997 | 1026.61
293.15 K, x2 = 0.8501 | 1036.78
293.15 K, x2 = 0.9001 | 1047.29
293.15 K, x2 = 0.9499 | 1058.27
293.15 K, x2 = 0.9747 | 1063.93
303.15 K, x2 = 0 | 897.392
303.15 K, x2 = 0.0262 | 900.37
303.15 K, x2 = 0.0502 | 903.146
303.15 K, x2 = 0.1004 | 909.105
303.15 K, x2 = 0.1506 | 915.204
303.15 K, x2 = 0.2005 | 921.462
303.15 K, x2 = 0.2502 | 927.883
303.15 K, x2 = 0.3001 | 934.514
303.15 K, x2 = 0.3502 | 941.367
303.15 K, x2 = 0.4 | 948.407
303.15 K, x2 = 0.45 | 955.705
303.15 K, x2 = 0.5003 | 963.262
303.15 K, x2 = 0.5498 | 971.001
303.15 K, x2 = 0.5998 | 979.074
303.15 K, x2 = 0.6497 | 987.452
303.15 K, x2 = 0.7007 | 996.305
303.15 K, x2 = 0.7502 | 1005.27
303.15 K, x2 = 0.8002 | 1014.68
303.15 K, x2 = 0.85 | 1024.5
303.15 K, x2 = 0.8999 | 1034.72
303.15 K, x2 = 0.9502 | 1045.5
303.15 K, x2 = 0.975 | 1051.05
313.15 K, x2 = 0 | 888.472
313.15 K, x2 = 0.0256 | 891.333
313.15 K, x2 = 0.0501 | 894.082
313.15 K, x2 = 0.0998 | 899.822
313.15 K, x2 = 0.1514 | 905.948
313.15 K, x2 = 0.2007 | 911.977
313.15 K, x2 = 0.2506 | 918.225
313.15 K, x2 = 0.3008 | 924.745
313.15 K, x2 = 0.3499 | 931.26
313.15 K, x2 = 0.4006 | 938.218
313.15 K, x2 = 0.4501 | 945.282
313.15 K, x2 = 0.5103 | 954.115
313.15 K, x2 = 0.5503 | 960.19
313.15 K, x2 = 0.5995 | 967.947
313.15 K, x2 = 0.6499 | 976.16
313.15 K, x2 = 0.6999 | 984.624
313.15 K, x2 = 0.7503 | 993.432
313.15 K, x2 = 0.8002 | 1002.61
313.15 K, x2 = 0.8499 | 1012.09
313.15 K, x2 = 0.9001 | 1022.04
313.15 K, x2 = 0.9497 | 1032.41
313.15 K, x2 = 0.975 | 1037.84

C=C(C)C(=O)OCCCC [butyl 2-methyl-2-propenoate]
[2]
Conditions | mass density [kg/m3]
293.15 K | 895.231
303.15 K | 885.991
313.15 K | 876.19

C=COC(C)=O [vinyl acetate]
[2]
Conditions | mass density [kg/m3]
293.15 K | 931.95
303.15 K | 919.089
313.15 K | 906.116

COC(=O)OC [dimethyl carbonate] + C=C(C)C(=O)OCCCC
[1], x1 = 1
Conditions | mass density [kg/m3]
293.15 K | 1069.79
303.15 K | 1056.75
313.15 K | 1043.37

C=CCOC(=O)C(=C)C [2-propenyl 2-methylpropenoate] + COC(=O)OC
[1]
Conditions | mass density [kg/m3]
293.15 K, x2 = 0 | 932.965
293.15 K, x2 = 0.0254 | 935.07
293.15 K, x2 = 0.0498 | 937.164
293.15 K, x2 = 0.1006 | 941.619
293.15 K, x2 = 0.1507 | 946.22
293.15 K, x2 = 0.2 | 950.913
293.15 K, x2 = 0.2505 | 955.966
293.15 K, x2 = 0.2999 | 961.134
293.15 K, x2 = 0.3499 | 966.623
293.15 K, x2 = 0.4005 | 972.4
293.15 K, x2 = 0.449 | 978.208
293.15 K, x2 = 0.5 | 984.616
293.15 K, x2 = 0.5499 | 991.215
293.15 K, x2 = 0.5991 | 998.042
293.15 K, x2 = 0.6502 | 1005.49
293.15 K, x2 = 0.7 | 1013.17
293.15 K, x2 = 0.7502 | 1021.34
293.15 K, x2 = 0.8001 | 1029.9
293.15 K, x2 = 0.8499 | 1039
293.15 K, x2 = 0.9002 | 1048.71
293.15 K, x2 = 0.9499 | 1058.87
293.15 K, x2 = 0.975 | 1064.27
303.15 K, x2 = 0 | 922.525
303.15 K, x2 = 0.0253 | 924.591
303.15 K, x2 = 0.0501 | 926.656
303.15 K, x2 = 0.101 | 931.041
303.15 K, x2 = 0.15 | 935.458
303.15 K, x2 = 0.1999 | 940.145
303.15 K, x2 = 0.2505 | 945.101
303.15 K, x2 = 0.2999 | 950.165
303.15 K, x2 = 0.3499 | 955.527
303.15 K, x2 = 0.4003 | 961.195
303.15 K, x2 = 0.447 | 966.662
303.15 K, x2 = 0.5001 | 973.205
303.15 K, x2 = 0.5501 | 979.68
303.15 K, x2 = 0.5994 | 986.387
303.15 K, x2 = 0.6502 | 993.661
303.15 K, x2 = 0.7001 | 1001.19
303.15 K, x2 = 0.7503 | 1009.19
303.15 K, x2 = 0.8001 | 1017.58
303.15 K, x2 = 0.8499 | 1026.47
303.15 K, x2 = 0.9002 | 1035.99
303.15 K, x2 = 0.9499 | 1046
303.15 K, x2 = 0.975 | 1051.3
313.15 K, x2 = 0 | 912.072
313.15 K, x2 = 0.0247 | 914.028
313.15 K, x2 = 0.0499 | 916.075
313.15 K, x2 = 0.1002 | 920.29
313.15 K, x2 = 0.1496 | 924.626
313.15 K, x2 = 0.1997 | 929.2
313.15 K, x2 = 0.2495 | 933.94
313.15 K, x2 = 0.2999 | 938.979
313.15 K, x2 = 0.3502 | 944.239
313.15 K, x2 = 0.3999 | 949.688
313.15 K, x2 = 0.4499 | 955.431
313.15 K, x2 = 0.4997 | 961.436
313.15 K, x2 = 0.5503 | 967.862
313.15 K, x2 = 0.6001 | 974.504
313.15 K, x2 = 0.6497 | 981.462
313.15 K, x2 = 0.7001 | 988.916
313.15 K, x2 = 0.7498 | 996.664
313.15 K, x2 = 0.7998 | 1004.93
313.15 K, x2 = 0.85 | 1013.71
313.15 K, x2 = 0.8998 | 1023
313.15 K, x2 = 0.9498 | 1032.83
313.15 K, x2 = 0.9746 | 1037.94

COC(=O)OC [dimethyl carbonate] + C=COC(C)=O
[1], x1 = 1
Conditions | mass density [kg/m3]
293.15 K | 1069.79
303.15 K | 1056.75
313.15 K | 1043.37
